From patent US11198897B2, “Rapid antibiotic susceptibility testing by tracking sub-micron scale motion of single bacterial cells” (Arizona Board of Regents on behalf of Arizona State …, priority 2017, dated 2021)

What was measured:
E. coli O157:H7 = test: Sub-μm motion tracking of antibody-tethered E. coli O157:H7 cells exposed to antibiotic; format: cell-based, Escherichia coli; details: for Distance (root-mean-square displacement of cell center over 20 sec) of a single cell: 0.5 mg/ml polymyxin B
Text: Referring now to FIG. 2A an image of an E. coli O157:H7 bacterial cell with superimposed motion of the cell center over 20 sec shown as darkened dots is shown. E. coli O157:H7 cells 202 tethered to the glass slide were imaged. […] Scale Bar 203 is 1 μm. 43 The center of each bacterial cell was identified in each image frame (described in more detail below with reference to FIG. 6A-FIG. 6D) and plotted as data points 204 in FIG. 2A′.
As there shown, plot 202 plots motion data 204 in nm in X and Y coordinates ranging from −400 nm to 400 nm. The center positions of the bacterial cell (center) at different moments are shown and reveal the sub-μm scale motion of the cell. For quantitative analysis of the sub-μm motion of the bacterial cell, “Distance” is defined as the root-mean-square of the position over 20 seconds. Note that the motion ranges from about −200 nm to 200 nm displacement along both coordinates.
Referring now to FIG. 3A, images of a bacterial cell and displacement of the cell center in 1×PBS before (0 min) and after polymyxin B addition (2 and 5 min) are shown. Images 301, 302, 303 of a bacterial cell and displacement of the cell center 310 in 1×PBS before (0 min) and after polymyxin B addition (2 and 5 min). Antibiotic effects on the sub-μm motion were examined using a lethal dose of polymyxin B (0.5 mg/ml). Images 301, 302, 303 show the bright-field images of an alive bacterial cell before, 2 min, and 5 min, respectively after exposure to 0.5 mg/ml polymyxin B, where the positions of the bacterial cell before and after the exposure to polymyxin B, represented by indicia 310, 310A and 310B respectively. Scale bar 311 is set at 1 μm. #, p=0.065.
The average E. coli O157:H7 distance over 20 sec. in 1×PBS was 278 nm as indicated by bar 350, which reduced to 225 nm within 2 min after addition of 0.5 mg/ml polymyxin B, indicated by bar 352 and further to 65 nm at 5 min post-antibiotic exposure as plotted in plot 324 and represented by bar 354.
A robust AST method must work for a bacterial population that contains a mixture of loosely and tightly bound cells. […] For this mixed population of bound cells, the DAVG was 265 nm (FIG. 3C) before the addition of polymyxin B and dropped to 123 nm at 10 min post-antibiotic exposure (FIG. 3D).
Clean BK7 glass coverslips were coated with 1.5 nm chromium and 48 nm gold and used as sensing chips. The chips were rinsed with deionized water and ethanol multiple times followed by drying with nitrogen gas and cleaning with a hydrogen flame. For antibody surface, the cleaned chips were submerged in 1 mM PEG/PEG-COOH ethanol solution and left in the dark for 24 h to coat a PEG/PEG-COOH self-assembled monolayer (SAM) on each chip. The PEG/PEG-COOH SAM-coated chips were activated with 500 μl of a freshly prepared mixture of 0.1 M NHS and 0.4M EDC in 1:1 ratio to produce NHS ester receptors, which react with the primary amine groups on the antibodies via an amide bond. Chips with activated PEG/PEG-COOH SAM were cleaned with deionized water and blown dry with nitrogen gas. […]
(§1) To quantify bacterial motion, region props MATLAB command was used to obtain the “Centroid” 603 for each segmented cell in the binary images. The centroid is the X and Y coordinates of the bacterial cell center and is calculated as the mean of all non-zero pixels which the bacterial cell occupies. […]

[1] = system: UPEC cells in human urine; test: Rapid AST by motion tracking (DAVG) of UPEC cells in human urine samples; format: cell-based, uropathogenic E. coli
Protocol: Referring now to FIG. 5A-5F, plots of DAVG of UPEC cells in human urine exposed to increasing concentrations of polymyxin B are there illustrated. UPEC cells (5×10^6 cfu/ml) were added to human urine samples, and DAVG was determined over time in the absence and presence of clinically-relevant concentrations of polymyxin B. The bars with vertical striping represent the baseline DAVG measurement of UPEC cells in urine. DAVG measurement of UPEC cells upon exposure to clinically-relevant concentrations of polymyxin B (bars with horizontal striping; antibiotics added immediately after the baseline measurement) and a high, bactericidal concentration of polymyxin B (bars with diagonal striping, 0.5 mg/ml added after the 90-min measurement). DAVG of cells in wells with (a) 0, (b) 0.25, (c) 1, (d) 2, (e) 4, and (f) 8 μg/ml of polymyxin B. *, p<0.05; ns, not significant.
To test the feasibility of an example of a method for analyzing clinically relevant samples, urine samples collected from healthy patients were spiked with UPEC bacterial cells. Following surface tethering, images were recorded from six different wells with polymyxin B doses varying from 0 to 8 μg/ml.
By repeating these experiments with increasing concentrations of UPEC cells in urine samples, the polymyxin B MBC90 min was determined to be between 4 and 8 μg/ml (Table 1). These MBC data corroborated the previous experiments with 5×10^6 cfu/ml and standard culturing methods which proceeded for 16 h (see also FIG. 17A-FIG. 17F).
An aliquot of frozen E. coliO157:H7 or E. coli CFT073 strain was thawed and used to inoculate 3 ml of Luria broth (LB) one day before the experiments. The overnight, saturated culture grown at 37° C. was diluted into fresh LB at a concentration of ˜10^7 cfu/ml and grown at 37° C. with gentle rotary mixing until the cultures reached an OD600 of 0.56, indicating the mid-logarithmic phase of growth. The corresponding concentration of the bacteria was 4.67×10^8 cfu/ml. Bacterial cells were collected by centrifugation at 2000×g for 15 min and resuspended in 1 ml PBS (1×) to an OD of 0.56. […]

[2] = system: UPEC cells spiked in human urine; test: Culture AST: bactericidal activity against UPEC in spiked urine samples by plating on Luria agar; format: cell-based, uropathogenic E. coli
Protocol: (§2) Broth microdilution assay was used to determine the polymyxin B MIC and MBC following a standard protocol.^54 Exponential phase UPEC CFT073 cultures were grown as described above, and bacterial suspensions (1×10^8 cfu/ml) were prepared in Mueller Hinton broth. Bacterial suspensions (100 μl of 5×10^6, 10^7, or 10^8 cfu/ml) were added to wells of 96-well microtiter plates containing polymyxin B (0.125-8 μg/ml). The MIC was determined by measuring the absorbance at 600 nm after 16 h standing incubation at 37° C. Cell viability and MBC values were determined by plating duplicate 10-fold serial dilutions for each sample onto Luria Broth agar plates and enumerating colonies after 16 h incubation at 37° C.
Referring now to FIG. 17A-FIG. 17F plots of bactericidal activity of polymyxin B against UPEC in spiked urine samples are shown. UPEC cells were added to human urine samples and exposed to different polymyxin B concentrations. At indicated times, 5 μl of each suspension was inoculated onto Luria agar. After incubation at 37° C. for 16 h, colonies were enumerated and recorded as cfu/ml. The bars with vertical striping represent the initial cfu/ml of UPEC cells in urine, and bars with horizontal striping represent cfu/ml of UPEC cells upon exposure to clinically-relevant concentrations of polymyxin B (antibiotics added immediately after the baseline measurement) in urine.

UPEC cells = test: Rapid AST by motion tracking (DAVG) of APTES-tethered UPEC cells in 1×PBS; format: cell-based, uropathogenic E. coli
Protocol: To apply the above motion-tracking method to AST of the clinically relevant UPEC strain, UPEC cells were tethered to the glass surface via APTES surface chemistry and conjugation to the amine group of a bacterial surface protein. Antibiotic dose-dependent experiments were performed in a multiplexed format using multi-well slides and a 40× objective. First, baseline images were captured at 0 min for each well. Subsequently, polymyxin B at clinically relevant concentrations (4, 2, 0.5, and 0.25 μg/ml) was added to different wells, and images were recorded at 15 min intervals for 75 min. Finally, as a positive control, a bactericidal dose (0.5 mg/ml) of polymyxin B was added to all wells, and images were recorded after incubation for 15 min (at 90 min). The control well (Well 1) initially harbored 100 tethered cells (as described below with reference to FIG. 8A) with an initial DAVG of 228 nm (FIG. 4A). Over time (0-75 min), the number of cells on the surface increased gradually (as described below with reference to FIG. 8A) due to replication of the surface-tethered cells (as described below with respect to FIG. 9A-10B). During the first 15 min, DAVG increased from 228 nm to 388 nm, followed by a gradual decrease from 388 to 227 nm over 75 min (FIG. 4A). […] DAVG vs. time was analyzed for polymyxin B varying between 0.5-4 μg/ml (FIG. 4B-FIG. 4E), showing clear correlation between the sub-μm motion and antibiotic concentration. […]
All E. coli O157:H7 experiment image sequences were collected at 106 fps at a pixel resolution of 640×480 using the Pike-032B CCD camera. […] The stage was translated to each well sequentially at the marker spot area and recorded 5 sec image sequences for each well. […]
as §1

UPEC CFT073 = test: Broth microdilution assay (MIC, MBC) in Mueller Hinton broth; format: cell-based, uropathogenic E. coli
Protocol: as §2
Referring now to FIG. 15, a plot measuring inhibition of UPEC in Mueller Hinton broth (MHB) after incubation with increasing polymyxin B concentrations is shown. Growth inhibition of UPEC in Mueller Hinton broth (MHB) after incubation with increasing polymyxin B concentrations. UPEC cells (5×10^6/ml) were incubated in MHB for 16 h at 37° C., followed by optical density measurements (OD600). Average and standard deviation OD600 measurements collected from triplicate experiments were plotted.
Referring now to FIG. 16, a table illustrating growth inhibition and bactericidal activity of the antibiotic polymyxin B is shown. After determining growth inhibition after […]

[3] = after addition of 0.5 mg/ml polymyxin B

polymyxin B was tested, and the “Distance (root-mean-square displacement of cell center over 20 sec) of a single cell” value (E. coli O157:H7; 2 min after addition, 278 nm in 1×PBS before) was 225 nm, the “Distance (root-mean-square displacement of cell center over 20 sec) of a single cell” value (E. coli O157:H7; 5 min post-antibiotic exposure, 278 nm before) was 65 nm and the “Viable cells on overnight culturing after exposure” value (E. coli O157:H7; 5 min exposure to lethal dose 0.5 mg/ml) was “no viable cells”. For the same substance, the “DAVG change of completely tethered bacterial cells” value (E. coli O157:H7; [3]) was “no change”, the “DAVG change of loosely tethered bacterial cells” value (E. coli O157:H7; [3]) was “significant decrease” and the “DAVG change in urine” value ([1]; 4 and 8 μg/ml polymyxin B, p<0.05, to values similar to lethal 0.5 mg/ml dose) was “decreased significantly”. The “DAVG change over time in urine” value ([1]; 90 min incubation with 0.25, 1, or 2 μg/ml polymyxin B) was “either remained unchanged or increased”, the “Rapid AST MBC 90 min” value ([1]; UPEC concentration in urine 10^8 cfu/ml) was 4 µg/mL and the “Colonies on Luria agar after bactericidal concentration” value ([2]; 0.5 mg/ml added after the 90-min measurement, additional 15-min incubation) was “no colonies were detected”. The “MBC against UPEC cells spiked in human urine” value ([2]; plating on Luria agar, 16 h at 37° C.) was 2 µg/mL, the “DAVG after lethal polymyxin B concentration” value (UPEC cells; control well, 0.5 mg/ml added after 75-min measurement, 227 nm before, p<0.05) was 64 nm and the “Number of cells on the surface over 75 min” value (UPEC cells; polymyxin B 0.5-4 μg/ml, indicating growth inhibition) was “remained constant”. For the same substance, the “Minimum bactericidal concentration at 75 min (MBC75 min)” value (UPEC cells; rapid AST, 75 min, 1×PBS) was 4 µg/mL, the “Standard incubation (16 h) MBC” value (UPEC CFT073; quantitative plating after 16 h incubation) was 2 µg/mL and the “Minimum inhibitory concentration (MIC)” value (UPEC CFT073; standard microdilution broth assay, 16 h incubation) was 1 µg/mL.
